Like-named read-outs stand apart in the source and are kept apart here.
What was measured:
TSH = assay: Serum TSH in hypothyroid rats infused with Tetrac or T4; type: in vivo, rat; conditions: for Serum TSH: hypothyroid rats, mean ± SEM
Protocol: Seventy-nine male SIVZ rats were purchased from the breeder (Institut für Labortierkunde des Universität Zürich, Zürich, Switzerland). […] The infusion lasted 13 days. […] An euthyroid control group was included. The animals were weighed every 2 days. Rats were sacrificed by decapitation and blood was collected and stored at […] until use. Tissues (liver, heart, brown adipose tissue, cerebral cortex and pituitary) were removed rapidly, frozen in liquid nitrogen and stored at […] until use.
Hornone assays. […] Endocrinol. […] Serum TSH measurements were performed with reagents kindly provided by the National Pituitary Program, NIAMDD, NIH (Bethesda, USA).

[1] = system: monodeiodinase type 1 mRNA; assay: Northern blot, hepatic monodeiodinase type 1 mRNA; type: in vivo, rat; conditions: Liver, infused rats, adjusted group mean at the mean Ln (TSH) concentration
Protocol: (§1) Seventy-nine male SIVZ rats were purchased from the breeder (Institut für Labortierkunde des Universität Zürich, Zürich, Switzerland). They were rendered hypothyroid by a single injection of [^131I]Na (100 μCi/rat) and before and throughout the experiment 0.02% 2-mercapto-1-methylimidazol (MMI) was added to drinking water. In order to have an euthyroid control group of similar weight and identical age, 10 rats received only MMI in the drinking water and 2 weeks before implanting the minipumps, MMI was withdrawn. Osmotic minipumps (secretion rate 0.25 μl/hour, duration 14 days) were implanted intraperitoneally (i.p.) 2 months after the injection of [^131I]Na. The minipumps were filled with T4 or Tetrac dissolved in 0.05 N NaOH, 2% BSA and 100,000 cpm [^125I]T4 or [^125I]Tetrac as control of their secretion rates. The infusion lasted 13 days. 0, 1.5, 4.5, 13.5 and 40.5 nmol Tetrac/day/100 g or 0.5, 1.5, 4.5 and 13.5 nmol T4/day/100 g bodyweight (BW) (n=4/dose) were infused. An euthyroid control group was included. The animals were weighed every 2 days. Rats were sacrificed by decapitation and blood was collected and stored at […] until use. Tissues (liver, heart, brown adipose tissue, cerebral cortex and pituitary) were removed rapidly, frozen in liquid nitrogen and stored at […] until use.
(§2) Total RNA extraction and Northern Blot hybridization Total RNA was extracted with the method of Chomczynski and Sacchi (Chomczynski, P. and Sacchi, N. Anal. Biochem. (1987) 162: 156-159). […]
(§3) The amount of labeled mRNA was quantified by scanning laser densitometry (Phosphorimager, Molecular Dynamics; Sunnyvale, USA). Variations in RNA loading and membrane transfer were corrected by densitometric quantification of a negative photograph of 28S and 18S ribosomal RNA bands from ethidium bromide stained RNA gels. […]

GH mRNA = assay: Northern blot, growth hormone mRNA in pituitary; type: in vivo, rat; conditions: infused rats, adjusted group mean at the mean Ln (TSH) concentration
Protocol: as §1, §2, §3

hypothyroid rats = assay: Heart weight and heart/body weight in hypothyroid rats infused with Tetrac or T4; type: in vivo, rat; conditions: hypothyroid rats, mean ± SEM; for Heart: continuous minipump infusion
Protocol: as §1

Monodeiodinase type 1 = Monodeiodinase type 1 activity in liver and heart homogenates of infused rats; type: in vivo, rat; conditions: Liver, infused rats, adjusted group mean at the mean Ln (TSH) concentration
Protocol: as §1
(§4) Monodeiodinase type 1 and 2 activities. Monodeiodinase type 1 and type 2 activities were determined in tissue homogenates by measuring the release of radioiodide from [^125I]rT3 according to the method of Leonard and Rosenberg (Leonard, J. L. et al. Endocrinology (1980) 106: 444-451).
(§5) Monodeiodinase type 1 activity was measured in liver homogenates using 1 μM rT3 and 1 mM DTT with 10 min of incubation, whereas for heart, 0.01 μM rT3 and 10 mM DTT with 1 hour of incubation. Monodeiodinase type 2 activity was measured in brown adipose tissue (BAT) and cerebral cortex using 1 nM rT3, 10 mM DTT and 1 mM propylthiouracil (PTU) with 1 hour of incubation. Protein concentrations were measured by the method of Bradford (Bio-Rad Laboratories GmbH, Munich, Germany) with bovine gammaglobulin as the protein standard. In order to study the effect of circulating Tetrac on the enzyme activities, 2 rats were injected intraperitoneally with 10 μCi ^125I Tetrac and killed 6 hours later. The tissue homogenates were extracted with 3 volumes of ethanol-NH3 (97:3). After 10 minutes centrifugation at 15,000 g, the supernatant was vacuum dried and applied to TLC (Merck 254, Toluol, acetic acid, water: 2:2:1). In order to calculate the tissue concentrations, the highest serum Tetrac levels were used (406 pmol/ml). The calculated tissue concentrations were: liver: 1.9, heart: 2.29 and brain cortex: 0.47 fluol Tetrac/μg protein.

α-MHC mRNA = assay: Northern blot, α-MHC mRNA in heart; type: in vivo, rat
Protocol: as §1, §2, §3

β-MHC mRNA = assay: Northern blot, β-MHC mRNA in heart; type: in vivo, rat; conditions: infused rats, adjusted group mean at the mean Ln (TSH) concentration
Protocol: as §1, §2, §3

Monodeiodinase type 2 = Monodeiodinase type 2 activity in brain cortex and brown adipose tissue of infused rats; type: in vivo, rat; conditions: for Residual monodeiodinase type 2 activity, adjusted mean: infused rats, remaining activity, adjusted group mean at the mean Ln (TSH) concentration
Protocol: as §1, §4, §5

[2] = Serum T3, T4, Triac and Tetrac levels in infused rats; type: in vivo; conditions: male, SIVZ, rat, intraperitoneal, mean ± SEM, read-out: Serum T4
Protocol: as §1
Hornone assays. Total serum T4, T3, Tetrac, Triac and TSH levels (intra-assay coefficient of variation 7 to 10%, inter-assay coefficient of variation 12 to 15%) were measured using the method of Burger, A., Sakoloff, C., Staeheli, V., Vallotton, M. D., and Ingbar, S. H. Acta. Endocrinol. (Copenh.) 80: 58-69 (1975). Serum TSH measurements were performed with reagents kindly provided by the National Pituitary Program, NIAMDD, NIH (Bethesda, USA). The detection limits were 0.80 ng TSH/ml; 9.5 pmol T4/ml; 0.16 pmol T3/ml; 10 pmol Tetrac/ml and 0.52 pmol Triac/ml.

[3] = infusion 13.5 nmol/day/100 g BW

In the case of N[C@@H](Cc1cc(I)c(Oc2cc(I)c(O)c(I)c2)c(I)c1)C(=O)O [T4, L-thyroxine, reference compound], the “Serum TSH” value (TSH; infusion 0.5 nmol/day/100 g BW) is reported as 110.2 ± 10.8 ng/mL, the “Serum TSH” value (TSH; infusion 1.5 nmol/day/100 g BW) is reported as 11.8 ± 3.0 ng/mL and the “Serum TSH” value (TSH; infusion 4.5 nmol/day/100 g BW) is reported as 1.0 ± 0.2 ng/mL. For the same compound, the “Serum TSH” value (TSH; [3]) was <0.8 ng/mL, the “Serum TSH concentration, mean of treatment group” value (TSH; mean over all dose levels of the treated rats, p=<0.04) was 31 ng/mL and the “Residual Monodeiodinase type 1 mRNA, adjusted mean” value [1] was 5.1 arbitrary units. For the same compound, the “GH mRNA, adjusted mean” value (GH mRNA) was 28644 arbitrary units, the “Heart” value (hypothyroid rats; 0.5 nmol/day/100 g BW) was 0.86 ± 0.06 g and the “Heart” value (hypothyroid rats; 1.5 nmol/day/100 g BW) was 0.90 ± 0.04 g. For the same compound, the “Heart” value (hypothyroid rats; 4.5 nmol/day/100 g BW) was 1.19 ± 0.03 g, the “Heart” value (hypothyroid rats; 13.5 nmol/day/100 g BW) was 1.32 ± 0.11 g and the “Heart/BW (%)” value (hypothyroid rats; infusion 0.5 nmol/day/100 g BW) was 0.35 ± 0.02%. The “Heart/BW (%)” value (hypothyroid rats; infusion 1.5 nmol/day/100 g BW) was 0.34 ± 0.01%, the “Heart/BW (%)” value (hypothyroid rats; infusion 4.5 nmol/day/100 g BW) was 0.45 ± 0.02% and the “Heart/BW (%)” value (hypothyroid rats; [3]) was 0.54 ± 0.02%. For the same compound, the “Residual Monodeiodinase type 1 activity, adjusted mean” value (Monodeiodinase type 1) was 180, the “α-MHC mRNA, T4/Tetrac (activity of T4 in % of Tetrac)” value (α-MHC mRNA) was 21% and the “α-MHC mRNA, adjusted mean” value (α-MHC mRNA; infused rats, adjusted group mean at the mean Ln (TSH) concentration) was 1.13 arbitrary units. For the same compound, the “β-MHC mRNA, adjusted mean” value (β-MHC mRNA) was 495 arbitrary units, the “Residual monodeiodinase type 2 activity, T4/Tetrac (activity of T4 in % of Tetrac)” value (Monodeiodinase type 2; BAT) was 42% and the “Residual monodeiodinase type 2 activity, adjusted mean” value (Monodeiodinase type 2; BAT) was 11.8. The “Residual monodeiodinase type 2 activity, T4/Tetrac (activity of T4 in % of Tetrac)” value (Monodeiodinase type 2; Brain Cortex) was 18%, the “Residual monodeiodinase type 2 activity, adjusted mean” value (Monodeiodinase type 2; Brain Cortex) was 5.02 and the concentration at 13 days ([2]; T4 infusion 0.5 nmol/day/100 g BW) was 43.1 ± 2.8 nM. It also gave a concentration at 13 days ([2]; T4 infusion 1.5 nmol/day/100 g BW) of 77.1 ± 9.4 nM, a concentration at 13 days ([2]; T4 infusion 4.5 nmol/day/100 g BW) of 130 ± 9.5 nM and a concentration at 13 days ([2]; T4 infusion 13.5 nmol/day/100 g BW) of 353 ± 31.7 nM.
